Entries after “also recorded” stand apart in the source; their conditions may differ.
Key:
[1] = tested on: HeLa cells; experiment: pH-dependent cell uptake by flow cytometry; type: cell-based; conditions: 5 μM, 1 hour, pH 7.4 vs pH 6.5
Description: FIGS. 5A-5B depict representative flow cytometry traces of pH-dependent cell treatments. […] Normalized cell counts (Y-axes) are plotted vs. doxorubicin fluorescence intensity per cell (X-axes).

[2] = Reductive activation / doxorubicin release in 5 mM GSH (LCMS); type: in vitro ADME; conditions: 50 μM, PBS pH 7.4, 5 mM GSH, 37° C.
Experimental: In certain embodiments, the prodrug releases the active form of the drug once inside a cancer cell. Once inside the cell, drug release can be triggered by reduction of the disulfide bond in the linker. To evaluate the reductive activation of drug release, 50 μM YU241528 in a solution of PBS, pH 7.4, containing 5 mM GSH (a typical intracellular concentration of the predominant biological reducing agent) was incubated at 37° C. Aliquots were taken at regular intervals and analyzed by LCMS.

[3] = Blood levels after tail vein injection; type: in vivo, adult female balb/c mice
Experimental: Given that the drug's distribution and clearance can be expected to be substantially complete by about 6 hours after administration, in certain embodiments the peak intracellular dose is achieved long before this process might interfere to a significant degree, even assuming the altered metabolite is indeed compromised in its activity. […] In certain embodiments, the serum stability of YU241528 allows for effective therapy. […] In certain embodiments, the prodrug undergoes a different elimination path, as hepatobiliary elimination of weakly-ionic organic substances is sensitive to charge, size, and lipophilicity.

[4] = Serum stability of prodrug (LCMS, 490 nm absorbance); type: in vitro ADME; conditions: 50 μM in PBS pH 7.4 with 20% mouse serum, 37° C., 6 hours of incubation
Experimental: FIG. 4A depicts liquid chromatography data showing the stability of YU241528 in serum.
The prodrug strategies of this invention are thought to impart their benefits during the distribution and cell uptake steps of anticancer therapy. In certain embodiments, a prodrug is stable in the blood for a period sufficient to allow for cell uptake and systemic clearance. To test this, 50 μM YU241528 in a solution of PBS, pH 7.4, containing 20% mouse serum was incubated at 37° C. At regular intervals, aliquots were taken and mixed with 2 volumes of ethanol to precipitate serum proteins, then centrifuged. Supernatants were analyzed by LCMS. […] The predominant peak was identified as YU241528 by mass spectrometry.

[5] = tested on: PEO1 ovarian cancer cells; experiment: pH-dependent cell growth inhibition, transient treatment; type: cell-based; conditions: for pH dependence of cell growth inhibition: pH 7.4 vs pH 6.2
Experimental: FIG. 9 depicts pH-dependent cell growth inhibition of PEO1 ovarian cancer cells in culture, treated transiently with various prodrugs of the invention, as described above.
FIG. 10 depicts pH-dependent cell growth inhibition of PEO1 ovarian cancer cells in culture, treated transiently with an anticancer kinase inhibitor drug, Osimertinib, or a compound of the invention, based on an active core of that drug, YU253673.
(§1) In order to evaluate pH-dependent activity, treatments are performed at atypical cell culture conditions. […] Several cell lines have been evaluated using this method and for each, cell seeding density and treatment duration is independently experimentally determined. Each experiment is normalized to sham and complete activity controls for each pH condition.
Similar results have been obtained from pH-dependent cell growth inhibition assays with other classes of Drug using the prodrug approach.

[6] = tested on: EMT-6 flank tumors; experiment: In vivo efficacy and toxicity in EMT-6 flank tumor model; design: species or system Balb/c mice; conditions: IV once daily for 5 days
Description: FIG. 7 depicts representative in vivo study on the efficacy and toxicity of compounds of the invention. […] Mean tumor volume and mean body weight graphs are shown for groups of 10 tumor-bearing mice.
FIG. 8 depicts the dose dependence of YU241531 (right panel) and YU244206 (left panel) treatments in the EMT-6 tumor model in Balb/c mice.

[7] = tested on: MDA-MB-231 breast cancer cells; experiment: pH-dependent cell growth inhibition (CellTiter-Glo); type: cell-based, Human; conditions: 6 hours treatment at pH 7.4 or pH 6.2, then 72 hours growth
Experimental: Cells treated for 6 hours at pH 7.4 (normal physiological pH, X traces) or pH 6.2 (acidic solid tumor pH, Y traces) were subsequently allowed to grow in normal growth medium for 72 hours, then cell viability was evaluated using the CellTiter-Glo assay kit (Promega). Normalized percent cell growth inhibition is plotted on the left side of each panel and IC50 values reported at each pH from non-linear regression analysis.
as §1
Human MDA-MB-231 breast cancer cells seeded at low density on tissue culture treated 384-well plates, allowed to adhere and grow in serum-supplemented growth medium for 24 hours, then treated under pH-controlled conditions for 6 hours, and finally washed and grown in fresh growth media for 72 hours were assessed for cell survival using the CellTiter-Glo assay system (Promega) (FIG. 6).

[8] = cited from earlier work

Molecule | pH preference of cell uptake [1] | pH dependence of cell growth inhibition [5] | body weight loss compared to sham treated controls [6] | pH dependence of cell growth inhibition [7] | other results
8-((2-((((2S,3S,4S,6R)-3-hydroxy-2-methyl-6-(((1S,3S)-3,5,12-trihydroxy-3-(2-hydroxyacetyl)-10-methoxy-6,11-dioxo-1,2,3,4,6,11-hexahydrotetracen-1-yl)oxy)tetrahydro-2H-pyran-4-yl)carbamoyl)oxy)ethyl)disulfaneyl)-2,2-dimethyloctanoic acid [YU241528] | preferentially taken up by cells at cancerous pH 6.5 versus cells at normal pH 7.4 | – | – | – | t1/2 of reduction of the disulfide [2]: ~2.7 min; non-compartmental half-life in blood [3]: about 1 hour; level in the blood at 6 hours post injection ([3]; 6 hours): remains at detectable levels; level in the blood at 24 hours post injection ([3]; 24 hours): undetectable; release of free doxorubicin / stability in serum [4]: no active doxorubicin is released; also recorded: no free doxorubicin was detected; also recorded: stable in serum
C=CC(=O)Nc1cc(Nc2nccc(-c3cn(C)c4ccccc34)n2)c(OC)cc1N(C)CCN(C)C [Osimertinib, reference compound] | – | slightly lower IC50 value at healthy pH 7.4 | – | – | –
COc1cccc2c1C(=O)c1c(O)c3c(c(O)c1C2=O)C[C@@](O)(C(=O)CO)C[C@@H]3O[C@H]1C[C@H](NC(=O)OCCSSCCCCCCCC(=O)O)[C@H](O)[C@H](C)O1 [YU241531, 8-((2-((((2S,3S,4S,6R)-3-hydroxy-2-methyl-6-(((1S,3S)-3,5,12-trihydroxy-3-(2-hydroxyacetyl)-10-methoxy-6,11-dioxo-1,2,3,4,6,11-hexahydrotetracen-1-yl)oxy)tetrahydro-2H-pyran-4-yl)carbamoyl)oxy)ethyl)disulfaneyl)octanoic acid] | – | – | no detectable weight loss | greater growth inhibition at acidic tumor pH | –
COc1cccc2c1C(=O)c1c(O)c3c(c(O)c1C2=O)C[C@@](O)(C(=O)CO)C[C@@H]3O[C@H]1C[C@H](N)[C@H](O)[C@H](C)O1 [Doxorubicin, reference compound] | greater uptake into cells at normal physiologic pH 7.4 than into cells at cancerous pH 6.5 | – | – | greater growth inhibition at basic healthy pH | basic pKA of amine group [8]: ~8
C=CC(=O)Nc1cc(Nc2nccc(-c3cn(C)c4ccccc34)n2)c(OC)cc1N(C)CCCc1c(F)c(F)c(O)c(F)c1F [YU253673, N-(4-methoxy-2-(methyl(3-(2,3,5,6-tetrafluoro-4-hydroxyphenyl)propyl)amino)-5-((4-(1-methyl-1H-indol-3-yl)pyrimidin-2-yl)amino)phenyl)acrylamide] | – | far greater activity at tumor pH 6.2 | – | – | cell growth inhibition at pH 6.2 ([5]; pH 6.2): potent cell growth inhibition; fold greater activity in tumor pH conditions compared with healthy pH conditions ([5]; pH 6.2 vs pH 7.4): more than 30 fold; cell growth inhibition at pH 7.4 ([5]; pH 7.4): no observed activity
COc1cccc2c1C(=O)c1c(O)c3c(c(O)c1C2=O)C[C@@](O)(C(=O)CO)C[C@@H]3O[C@H]1C[C@H](NC(=O)OCCSSCCCc2c(F)c(F)c(O)c(F)c2F)[C@H](O)[C@H](C)O1 [YU244206, 2-((3-(2,3,5,6-tetrafluoro-4-hydroxyphenyl)propyl)disulfaneyl)ethyl ((2S,3S,4S,6R)-3-hydroxy-2-methyl-6-(((1S,3S)-3,5,12-trihydroxy-3-(2-hydroxyacetyl)-10-methoxy-6,11-dioxo-1,2,3,4,6,11-hexahydrotetracen-1-yl)oxy)tetrahydro-2H-pyran-4-yl)carbamate] | – | – | no detectable weight loss | greater growth inhibition at acidic tumor pH | –
